Where a name gives a salt, the structure may show the parent alone.
Each compound was assayed on GBM4 cells (human glioblastoma neurosphere cell culture) (assay: GBM4 viability assay (Cell Titer Glo luminescence, 3 days)). Conditions: 72 h, 3 days incubation.
Type: cell-based
Method: Example 283: GBM4 and GBM8 Viability Assay
Cell culture medium was prepared from a NSA proliferation kit (Neurocult) and NeuroCult supplements (Stemcell Tech Cat. #05751) and treated with 20 μL of 10 μg/mL rh EGF, 10 μL of 10 μg/mL rh bFGF and 10 μL of 0.2% Heparin. In this medium, human glioblastoma cells were cultured in ultra-low attachment tissue culture flasks until 1×10^6 cells ml was achieved (GBM4 and GBM8 are distinct neurosphere cell cultures derived from these human patient tissues). GBM4 and GBM8 cells were dissociated and 10 mL of media containing 4000 human glioblastoma cells per 90 uL were transferred to an ultra-low binding 96-well plate and incubated at 37° C. overnight. On the following day, 10 μL of a 1% DMSO solution of test compound in assay medium was added to wells containing the cell suspension and the mixture incubated at 37° C. for 3 days. At this time, the plate was removed from the incubator and allowed to reach room temperature. After about 30 minutes, 50 μL of Cell Titer Glo solution was added to each well and the plate shaken for 1 minute at low speed. After 10 minutes luminescence was recorded using a Tecan Safire2 reader.
Reduction in luminescence compared to DMSO only control wells was used to determine the percentage inhibition of cell growth. IC50s were calculated using the % inhibition of luminescence for serial dilutions of compounds fitted to a 4-parameter fit within the Prism (San Diego) curve fitting program.

Structure (SMILES) | IC50 [nM]
Cc1cc(Nc2ccncc2)nc(NC(=O)Nc2ccc(Cl)c(Cl)c2)n1 [Compound 39, 2-[3-(3,4-dichlorophenyl)ureido]-6-methyl-4-(4-pyridylamino)-pyrimidine] | 1000 to 10000
Cc1cc(NC2CCCNC2)nc(NC(=O)Nc2ccc(Cl)c(Cl)c2)n1 (racemic) [Compound 24, (±)-2-[3-(3,4-dichlorophenyl)ureido]-6-methyl-4-(3-piperidylamino)pyrimidine hydrochloride] | < 1000
Cc1cc(N2CCOCC2)nc(NC(=O)Nc2ccc(Cl)c(Cl)c2)n1 [Compound 4, 1-(3,4-dichlorophenyl)-3-(6-methyl-4-morpholino-2-pyrimidinyl) Urea] | 10000 to 30000
CCN1CCCC(Nc2cc(C)nc(NC(=O)Nc3ccc(Cl)c(Cl)c3)n2)C1 (racemic) [Compound 30, (±)-2-[3-(3,4-dichlorophenyl)ureido]-4-(1-ethyl-piperidin-3-yl-amino)-6-methylpyrimidine] | 10000 to 30000
CNCCN(C)c1cc(C)nc(NC(=O)Nc2ccc(Cl)c(Cl)c2)n1 [Compound 6, 1-(N-methyl{2-[3-(3,4-dichlorophenyl)ureido]-6-methyl-4-pyrimidinyl}amino)-2-(methylamino)ethane] | 1000 to 10000
Cc1cc(N2CCN(C)CC2)nc(NC(=O)Nc2ccc(Cl)c(Cl)c2)n1 [Compound 5, 1-(3,4-dichlorophenyl)-3-{6-methyl-4-(4-methyl-piperazin-1-yl-)pyrimidin-2-yl}-urea] | 10000 to 30000
Cc1cc(NCCCN(C)C)nc(NC(=O)Nc2ccc(Cl)c(Cl)c2)n1 [Compound 8, 1-{2-[3-(3,4-Dichlorophenyl)ureido]-6-methyl-pyrimidin-4-yl}-amino-3-(dimethylamino)propane] | < 1000
Cc1cc(NCCCO)nc(NC(=O)Nc2ccc(Cl)c(Cl)c2)n1 [Compound 7, 3-{2-[3-(3,4-dichlorophenyl)ureido]-6-methyl-pyrimidin-4-yl}-aminopropanol] | < 1000
CCN1CCCC(Nc2cc(C)nc(N3CCN(c4ccc(Cl)c(Cl)c4)C3=O)n2)C1 (racemic) [Compound 34, (±)-1-(3,4-dichlorophenyl)-3-[4-(1-ethyl-3-piperidylamino)-6-methyl-2-pyrimidinyl]-2-imidazolidinone] | 10000 to 30000

What follows are compounds tested on GBM8 cells (human glioblastoma neurosphere cell culture) (assay: GBM8 viability assay (Cell Titer Glo luminescence, 3 days)). Conditions: 72 h, 3 days incubation.
Type: cell-based
Summary of the method: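 Patient-derived neurosphere cells (4000/well) in NeuroCult medium with rh EGF, rh bFGF and heparin, ultra-low attachment, dosed after overnight settling; 3 days at 37 °C. CellTiter-Glo luminescence versus DMSO controls gave % growth inhibition; IC50 from 4-parameter fit of serial dilutions.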

Structure (SMILES) | IC50 [nM]
Cc1cc(Nc2ccncc2)nc(NC(=O)Nc2ccc(Cl)c(Cl)c2)n1 [Compound 39, 2-[3-(3,4-dichlorophenyl)ureido]-6-methyl-4-(4-pyridylamino)-pyrimidine] | 1000 to 10000
Cc1cc(NC2CCCNC2)nc(NC(=O)Nc2ccc(Cl)c(Cl)c2)n1 (racemic) [Compound 24, (±)-2-[3-(3,4-dichlorophenyl)ureido]-6-methyl-4-(3-piperidylamino)pyrimidine hydrochloride] | < 1000
Cc1cc(N2CCOCC2)nc(NC(=O)Nc2ccc(Cl)c(Cl)c2)n1 [Compound 4, 1-(3,4-dichlorophenyl)-3-(6-methyl-4-morpholino-2-pyrimidinyl) Urea] | 1000 to 10000
CCN1CCCC(Nc2cc(C)nc(NC(=O)Nc3ccc(Cl)c(Cl)c3)n2)C1 (racemic) [Compound 30, (±)-2-[3-(3,4-dichlorophenyl)ureido]-4-(1-ethyl-piperidin-3-yl-amino)-6-methylpyrimidine] | 10000 to 30000
CNCCN(C)c1cc(C)nc(NC(=O)Nc2ccc(Cl)c(Cl)c2)n1 [Compound 6, 1-(N-methyl{2-[3-(3,4-dichlorophenyl)ureido]-6-methyl-4-pyrimidinyl}amino)-2-(methylamino)ethane] | 1000 to 10000
Cc1cc(NCCCN(C)C)nc(NC(=O)Nc2ccc(Cl)c(Cl)c2)n1 [Compound 8, 1-{2-[3-(3,4-Dichlorophenyl)ureido]-6-methyl-pyrimidin-4-yl}-amino-3-(dimethylamino)propane] | < 1000
CC(=O)NCCNc1cc(C)nc(NC(=O)Nc2ccc3c(c2)OCCO3)n1 [Compound 307, N-(2-{2-[3-(2,3-dihydro-benzo[1,4]dioxin-6-yl)-ureido]-6-methyl-pyrimidin-4-ylamino}-ethyl)-acetamide] | < 1000
Cc1cc(NCC2CCCN(C)C2)nc(NC(=O)Nc2ccc(C)c(C)c2)n1 (centres unmarked) [Compound 258] | 1000 to 10000
Cc1cc(NCCO)nc(NC(=O)Nc2ccc(F)c(Cl)c2)n1 [Compound 161] | < 1000
Cc1cc(NCCCCN(C)C)nc(NC(=O)Nc2ccccc2)n1 [Compound 76] | 1000 to 10000
Cc1cccc(NC(=O)Nc2nc(C)cc(NCCCCN)n2)c1 [Compound 216] | < 1000
Cc1cc(NCCCO)nc(NC(=O)Nc2ccc(Cl)c(Cl)c2)n1 [Compound 7, 3-{2-[3-(3,4-dichlorophenyl)ureido]-6-methyl-pyrimidin-4-yl}-aminopropanol] | < 1000
CNCCCNc1cc(C)nc(NC(=O)Nc2ccc3c(c2)OCCO3)n1 [Compound 299, 1-(2,3-dihydrobenzo[b][1,4]dioxin-6-yl)-3-(4-methyl-6-((3-(methylamino)propyl)amino)pyrimidin-2-yl)urea] | 1000 to 10000
Cc1cccc(NC(=O)Nc2nc(C)cc(NCC3CCCN(C)C3)n2)c1 (centres unmarked) [Compound 214] | 1000 to 10000
Cc1cc(NCCO)nc(NC(=O)Nc2cccc(OC(F)(F)F)c2)n1 [Compound 176] | < 1000
COc1cccc(NC(=O)Nc2nc(C)cc(NCCN(C)C)n2)c1 [Compound 145] | 1000 to 10000
Cc1cc(NCCc2ccccn2)nc(NC(=O)Nc2ccc(Cl)c(C(F)(F)F)c2)n1 [Compound 57] | 1000 to 10000
Cc1cc(NCCC(N)=O)nc(NC(=O)Nc2ccc(Cl)c(C(F)(F)F)c2)n1 [Compound 60] | < 1000
Cc1ccc(NC(=O)Nc2nc(C)cc(NCCCN)n2)cc1 [Compound 236] | < 1000
COc1ccc(NC(=O)Nc2nc(C)cc(NCCCNC(C)=O)n2)cc1 [Compound 275, N-(3-((2-(3-(4-methoxyphenyl)ureido)-6-methylpyrimidin-4-yl)amino)propyl)acetamide] | < 1000
CCN1CCCC(Nc2cc(C)nc(N3CCN(c4ccc(Cl)c(Cl)c4)C3=O)n2)C1 (racemic) [Compound 34, (±)-1-(3,4-dichlorophenyl)-3-[4-(1-ethyl-3-piperidylamino)-6-methyl-2-pyrimidinyl]-2-imidazolidinone] | 1000 to 10000
CNCCCCNc1cc(C)nc(NC(=O)Nc2ccc(Cl)c(Cl)c2)n1 [Compound 26, 1-(3,4-dichlorophenyl)-3-(4-methyl-6-((4-(methylamino)butyl)amino)pyrimidin-2-yl)urea] | < 1000
Cc1cc(NCCOCCO)nc(NC(=O)Nc2ccc(F)c(Cl)c2)n1 [Compound 166] | < 1000
CC(=O)NCCNc1cc(C)nc(NC(=O)Nc2ccc3c(c2)OCO3)n1 [Compound 306, N-{2-[2-(3-benzo[1,3]dioxol-5-yl-ureido)-6-methyl-pyrimidin-4-ylamino]-ethyl}-acetamide] | 1000 to 10000
Cc1cc(NCC(C)O)nc(NC(=O)Nc2ccc(Cl)c(C(F)(F)F)c2)n1 (centres unmarked) [Compound 54] | < 1000
Cc1cc(NCCCN(C)C)nc(NC(=O)Nc2cccc(C(F)(F)F)c2)n1 [Compound 180, 1-(4-((3-(dimethylamino)propyl)amino)-6-methylpyrimidin-2-yl)-3-(3-(trifluoromethyl)phenyl)urea] | < 1000
Cc1cc(NCCCO)nc(NC(=O)Nc2ccccc2)n1 [Compound 70, 1-(4-((3-hydroxypropyl)amino)-6-methylpyrimidin-2-yl)-3-phenylurea] | 1000 to 10000

Structure (SMILES) | IC50 [nM]
CNCCCNc1cc(C)nc(NC(=O)Nc2ccc(C)c(C)c2)n1 [Compound 269] | < 1000
Cc1cc(NCCCN)nc(NC(=O)Nc2ccc(C(F)(F)F)cc2)n1 [Compound 204] | 1000 to 10000
COc1ccc(NC(=O)Nc2nc(C)cc(NCCO)n2)cc1 [Compound 130] | < 1000
Cc1cc(NCCCN(C)C)nc(NC(=O)Nc2cccc(Cl)c2)n1 [Compound 45, 1-{2-[3-(3-Chloro-phenyl)ureido]-6-methyl-4-pyrimidin-ylamino}-3-(dimethyl-amino)propane] | < 1000
Cc1cc(NCCCc2cnc[nH]2)nc(NC(=O)Nc2ccc(Cl)c(C(F)(F)F)c2)n1 [Compound 59] | < 1000
Cc1cccc(NC(=O)Nc2nc(C)cc(NCCCCN(C)C)n2)c1 [Compound 227] | < 1000
CNCCCN(C)c1cc(C)nc(NC(=O)Nc2ccc(F)c(C(F)(F)F)c2)n1 [Compound 113] | 1000 to 10000
CNCCCNc1cc(C)nc(NC(=O)Nc2cccc(C(F)(F)F)c2)n1 [Compound 194, 1-(4-methyl-6-((3-(methylamino)propyl)amino)pyrimidin-2-yl)-3-(3-(trifluoromethyl)phenyl)urea] | < 1000
Cc1cccc(NC(=O)Nc2nc(C)cc(NCCO)n2)c1 [Compound 211] | < 1000
Cc1cc(NCCN(C)C)nc(NC(=O)Nc2ccc(Cl)c(C(F)(F)F)c2)n1 [Compound 48] | 1000 to 10000
Cc1cc(NCCCO)nc(NC(=O)Nc2ccc(F)c(C(F)(F)F)c2)n1 [Compound 102, 1-(4-fluoro-3-(trifluoromethyl)phenyl)-3-(4-((3-hydroxypropyl)amino)-6-methylpyrimidin-2-yl)urea] | < 1000
CNCCCNc1cc(C)nc(NC(=O)Nc2ccc(F)c(Cl)c2)n1 [Compound 170] | < 1000
COc1cccc(NC(=O)Nc2nc(C)cc(NCCCN(C)C)n2)c1 [Compound 141] | 1000 to 10000
Cc1cc(NCCCCN(C)C)nc(NC(=O)Nc2cccc(C(F)(F)F)c2)n1 [Compound 191] | < 1000
Cc1cc(NCCCCO)nc(NC(=O)Nc2ccc(Cl)c(C(F)(F)F)c2)n1 [Compound 50] | < 1000
COc1cccc(NC(=O)Nc2nc(C)cc(NCCCN)n2)c1 [Compound 143] | 1000 to 10000
Cc1cc(NCC(C)O)nc(NC(=O)Nc2ccc(F)c(Cl)c2)n1 (centres unmarked) [Compound 164] | < 1000
Cc1cc(NCCCCO)nc(NC(=O)Nc2ccc(C)c(C)c2)n1 [Compound 255] | < 1000
COc1ccc(NC(=O)Nc2nc(C)cc(NCCN(C)C)n2)cc1 [Compound 138] | < 1000
CNCCCNc1cc(C)nc(NC(=O)Nc2cccc(C)c2)n1 [Compound 230] | < 1000
Cc1cccc(NC(=O)Nc2nc(C)cc(NCC(C)O)n2)c1 (centres unmarked) [Compound 219] | < 1000
Cc1cc(NCCCc2cnc[nH]2)nc(NC(=O)Nc2ccc(F)c(C(F)(F)F)c2)n1 [Compound 115] | < 1000
Cc1ccc(NC(=O)Nc2nc(C)cc(NCCCN(C)C)n2)cc1 [Compound 234, 1-(4-((3-(dimethylamino)propyl)amino)-6-methylpyrimidin-2-yl)-3-(p-tolyl)urea] | < 1000
COC(=O)CCNc1cc(C)nc(NC(=O)Nc2ccc(F)c(Cl)c2)n1 [Compound 167] | 1000 to 10000
Cc1cccc(NC(=O)Nc2nc(C)cc(NCC3CCCNC3)n2)c1 (centres unmarked) [Compound 232] | < 1000
Cc1cc(NCCCN(C)C)nc(NC(=O)Nc2ccc(C(C)(C)C)cc2)n1 [Compound 301, 1-(4-(tert-butyl)phenyl)-3-(4-((3-(dimethylamino)propyl)amino)-6-methylpyrimidin-2-yl)urea] | < 1000

Reference: US11691951B2 (Curtana Pharmaceuticals, Inc., priority 2015, dated 2023)
